Experimental data taken from PubChem BioAssay (NCI).
“And” between values parts separate entries of the source, which are not always exact repeats. Equal values may be shown once.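 All cell lines were grown in 96-well plates and treated with compound for 48 hours. GI50: concentration for 50% inhibition of growth. TGI marks complete inhibition of growth.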

How the values were obtained:
Assay in all cases: NCI-60 cell line screen, 48 h
MCF7 breast = test system: MCF7 breast
SK-MEL-5 melanoma = test system: SK-MEL-5 melanoma
PC-3 prostate = test system: PC-3 prostate
NCI-H226 lung = test system: NCI-H226 lung
MDA-MB-435 = test system: MDA-MB-435
A498 renal = test system: A498 renal
KM12 colon = test system: KM12 colon
OVCAR-4 ovarian = test system: OVCAR-4 ovarian
RXF 393 renal = test system: RXF 393 renal
IGROV1 ovarian = test system: IGROV1 ovarian
TK-10 renal = test system: TK-10 renal
U251 CNS = test system: U251 CNS
NCI-H522 lung = test system: NCI-H522 lung
UACC-257 melanoma = test system: UACC-257 melanoma
SNB-75 CNS = test system: SNB-75 CNS
HT29 colon = test system: HT29 colon
M14 melanoma = test system: M14 melanoma
LOX IMVI melanoma = test system: LOX IMVI melanoma
NCI-H460 lung = test system: NCI-H460 lung
BT-549 breast = test system: BT-549 breast
K-562 leukemia = test system: K-562 leukemia
A549 NSCLC = test system: A549 NSCLC
MOLT-4 leukemia = test system: MOLT-4 leukemia
T-47D breast = test system: T-47D breast
SW-620 colon = test system: SW-620 colon
EKVX NSCLC = test system: EKVX NSCLC
HOP-62 NSCLC = test system: HOP-62 NSCLC
SK-MEL-28 melanoma = test system: SK-MEL-28 melanoma
SK-MEL-2 melanoma = test system: SK-MEL-2 melanoma
SK-OV-3 ovarian = test system: SK-OV-3 ovarian
SR leukemia = test system: SR leukemia
SF-295 CNS = test system: SF-295 CNS
RPMI-8226 leukemia = test system: RPMI-8226 leukemia
UACC-62 melanoma = test system: UACC-62 melanoma
COLO 205 colon = test system: COLO 205 colon
OVCAR-8 ovarian = test system: OVCAR-8 ovarian
ACHN renal = test system: ACHN renal
HL-60(TB) leukemia = test system: HL-60(TB) leukemia
MDA-MB-231 breast = test system: MDA-MB-231 breast
786-0 renal = test system: 786-0 renal
HCC-2998 colon = test system: HCC-2998 colon
CCRF-CEM leukemia = test system: CCRF-CEM leukemia
SNB-19 CNS = test system: SNB-19 CNS
SF-268 CNS = test system: SF-268 CNS
SN12C renal = test system: SN12C renal
CAKI-1 renal = test system: CAKI-1 renal
HCT-15 colon = test system: HCT-15 colon
UO-31 renal = test system: UO-31 renal
NCI-H23 lung = test system: NCI-H23 lung
NCI/ADR-RES ovarian = test system: NCI/ADR-RES ovarian
OVCAR-3 ovarian = test system: OVCAR-3 ovarian
MALME-3M melanoma = test system: MALME-3M melanoma
SF-539 CNS = test system: SF-539 CNS
HS 578T breast = test system: HS 578T breast
HCT-116 colon = test system: HCT-116 colon
OVCAR-5 ovarian = test system: OVCAR-5 ovarian
DU-145 prostate = test system: DU-145 prostate

SMILES: COc1cc(OC)c(/C=C/S(=O)(=O)Cc2ccc(OC)c(NCC(=O)O)c2)c(OC)c1
- GI50 (MCF7 breast): 109 nM and 58.6 nM
- TGI (MCF7 breast): > 100000 nM
- GI50 (SK-MEL-5 melanoma): 113 nM and 68.4 nM
- TGI (SK-MEL-5 melanoma): 1290 nM and 1010 nM
- GI50 (PC-3 prostate): 119 nM and 48.6 nM
- TGI (PC-3 prostate): > 100000 nM
- GI50 (NCI-H226 lung): > 2440 nM and 390 nM
- TGI (NCI-H226 lung): > 100000 nM
- GI50 (MDA-MB-435): 31.2 nM and 28.3 nM
- TGI (MDA-MB-435): 115 nM and 111 nM
- GI50 (A498 renal): 66.8 nM and 44.8 nM
- GI50 (KM12 colon): 103 nM and 49.9 nM
- TGI (KM12 colon): > 10000 nM
- GI50 (OVCAR-4 ovarian): > 2910 nM and 417 nM
- TGI (OVCAR-4 ovarian): > 100000 nM
- GI50 (RXF 393 renal): 72.6 nM and 46.7 nM
- TGI (RXF 393 renal): > 100000 nM
- GI50 (IGROV1 ovarian): 152 nM and 244 nM
- TGI (IGROV1 ovarian): > 100000 nM
- TGI (TK-10 renal): > 100000 nM
- GI50 (U251 CNS): 193 nM and 47.7 nM
- TGI (U251 CNS): > 100000 nM
- GI50 (NCI-H522 lung): 37.4 nM and 20.5 nM
- TGI (NCI-H522 lung): 213 nM and 60.8 nM
- TGI (UACC-257 melanoma): > 100000 nM
- GI50 (SNB-75 CNS): 68.2 nM and 49.2 nM
- TGI (SNB-75 CNS): > 100000 nM
- GI50 (HT29 colon): 334 nM and 328 nM
- TGI (HT29 colon): > 8570 nM and 1400 nM
- GI50 (M14 melanoma): 96.5 nM and 46.7 nM
- TGI (M14 melanoma): > 10000 nM
- GI50 (LOX IMVI melanoma): 150 nM and 134 nM
- TGI (LOX IMVI melanoma): > 100000 nM
- GI50 (NCI-H460 lung): 114 nM and 45.1 nM
- TGI (NCI-H460 lung): > 100000 nM
- GI50 (BT-549 breast): 193 nM and 400 nM
- TGI (BT-549 breast): > 24500 nM
- GI50 (K-562 leukemia): 76.7 nM and 49 nM
- TGI (K-562 leukemia): > 100000 nM
- GI50 (A549 NSCLC): 229 nM and 75.5 nM
- TGI (A549 NSCLC): > 100000 nM
- GI50 (MOLT-4 leukemia): 408 nM and 466 nM
- TGI (MOLT-4 leukemia): > 100000 nM
- GI50 (T-47D breast): > 100000 nM
- TGI (T-47D breast): > 100000 nM
- GI50 (SW-620 colon): 130 nM and 108 nM
- TGI (SW-620 colon): > 100000 nM
- GI50 (EKVX NSCLC): 127 nM and 83.4 nM
- TGI (EKVX NSCLC): > 100000 nM
- GI50 (HOP-62 NSCLC): 291 nM and 87.4 nM
- TGI (HOP-62 NSCLC): > 100000 nM
- GI50 (SK-MEL-28 melanoma): 340 nM
- TGI (SK-MEL-28 melanoma): > 10000 nM
- GI50 (SK-MEL-2 melanoma): 396 nM and 288 nM
- TGI (SK-MEL-2 melanoma): > 100000 nM
- GI50 (SK-OV-3 ovarian): 442 nM and 99 nM
- TGI (SK-OV-3 ovarian): > 100000 nM
- GI50 (SR leukemia): 181 nM and 206 nM
- TGI (SR leukemia): > 100000 nM
- GI50 (SF-295 CNS): 68.7 nM and 44.6 nM
- TGI (SF-295 CNS): > 100000 nM
- GI50 (RPMI-8226 leukemia): 160 nM and 331 nM
- TGI (RPMI-8226 leukemia): > 100000 nM
- TGI (UACC-62 melanoma): > 100000 nM
- GI50 (COLO 205 colon): 238 nM and 274 nM
- TGI (COLO 205 colon): 714 nM and 738 nM
- GI50 (OVCAR-8 ovarian): 273 nM and 104 nM
- TGI (OVCAR-8 ovarian): > 100000 nM
- GI50 (ACHN renal): 178 nM and 452 nM
- TGI (ACHN renal): > 100000 nM
- GI50 (HL-60(TB) leukemia): 156 nM and 355 nM
- GI50 (MDA-MB-231 breast): 192 nM and 196 nM
- TGI (MDA-MB-231 breast): > 2680 nM
- GI50 (786-0 renal): 177 nM and 144 nM
- TGI (786-0 renal): > 100000 nM
- GI50 (HCC-2998 colon): 247 nM and 237 nM
- TGI (HCC-2998 colon): > 100000 nM
- GI50 (CCRF-CEM leukemia): 159 nM and 291 nM
- TGI (CCRF-CEM leukemia): > 100000 nM
- GI50 (SNB-19 CNS): 139 nM and 244 nM
- TGI (SNB-19 CNS): > 100000 nM
- GI50 (SF-268 CNS): 292 nM and 153 nM
- TGI (SF-268 CNS): > 100000 nM
- GI50 (SN12C renal): 207 nM and 251 nM
- TGI (SN12C renal): > 100000 nM
- TGI (CAKI-1 renal): > 100000 nM
- GI50 (HCT-15 colon): 127 nM and 241 nM
- TGI (HCT-15 colon): > 100000 nM
- TGI (UO-31 renal): > 100000 nM
- GI50 (NCI-H23 lung): 263 nM and 136 nM
- TGI (NCI-H23 lung): > 100000 nM
- GI50 (NCI/ADR-RES ovarian): 67.8 nM and 33.2 nM
- TGI (NCI/ADR-RES ovarian): > 3120 nM
- GI50 (OVCAR-3 ovarian): 93.5 nM and 70.2 nM
- TGI (OVCAR-3 ovarian): 533 nM
- TGI (MALME-3M melanoma): > 100000 nM
- GI50 (SF-539 CNS): 193 nM and 55.3 nM
- GI50 (HS 578T breast): 103 nM and 60.5 nM
- TGI (HS 578T breast): > 100000 nM
- GI50 (HCT-116 colon): 119 nM and 93.4 nM
- TGI (HCT-116 colon): > 10000 nM
- GI50 (OVCAR-5 ovarian): 347 nM and 470 nM
- TGI (OVCAR-5 ovarian): > 100000 nM
- GI50 (DU-145 prostate): 290 nM and 176 nM
